US11760722B2 (priority 2022, dated 2023)
Values joined by “and” are separate entries in the source; they are usually repeats but may differ in a detail not shown here. Equal values may be shown once. Read-outs that look alike come from different tables or passages of the source.

Tests used:
SARS-CoV-2 replicon = experiment: microbe, parasite or virus in culture; assay type: cell-based
COVID-19 WT Mpro = target: T1, COVID-19 WT Mpro (Severe acute respiratory syndrome coronavirus 2, UniProt P0DTD1); experiment: biochemical; conditions: WT Mpro 25 nM, substrate 25 μM, 30 min pre-incubation; several values in a cell = repeat determinations
T1 construct: The C-His6-tagged COVID-19 WT Mpro (NC_045512); His6 (C); host or cells: E. coli

[1] = tested on: human coronavirus (HCoV) 229E; experiment: microbe, parasite or virus in culture; assay type: cell-based, human coronavirus 229E
Description: Test compounds were provided by the sponsor. Reference compound remdesivir was provided by WuXi AppTec. Compounds were assayed at 8 concentrations (to be defined by sponsor), in duplicate wells.
MRCS cells were obtained from the ATCC, and maintained in the Minimum Essential Medium supplemented with 10% FBS, 1% L-glutamine, 1% NEAA and 1% penicillin-streptomycin. Minimum Essential Medium supplemented with 5% FBS, 1% L-glutamine, 1% NEAA and 1% penicillin-streptomycin was used as the assay medium.
Cells were seeded in 96 well plates, in 100 μl per well of assay medium, and cultured at 37° C. and 5% CO2 overnight. Next day, test compound was diluted with assay medium and then added into the cells, 50 μl per well. Then 50 μl per well of assay medium diluted virus was added. The final volume of the cell culture was 200 μl per well. […] The CPE were measured by CellTiter Glo following the manufacturer's manual. The antiviral activity of compounds was calculated based on the protection of the virus-induced CPE at each concentration normalized by the virus control.
EC50 and CC50 values were calculated using the GraphPad Prism software using the nonlinear regression model of log(inhibitor) vs. response—Variable slope (four parameters).

[2] = Severe acute respiratory syndrome coronavirus 2, Huh-7, 24 h; read-out: Replicon EC50
[3] = unidentified human coronavirus, 72 h, MRCS cells, HCoV 229E, 3 days, CellTiter Glo, read-out: 229E CPE EC50
[4] = MRCS cells, HCoV 229E, 3 days, CellTiter Glo, read-out: 229E CPE EC50

Compound | EC50 (SARS-CoV-2 replicon; [2]) | EC50 [1, 3] | also measured
CC(C)(C)[C@H](NC(=O)[C@H]1C[C@H]2CCCC[C@H]2N1)C(=O)N1C[C@H]2[C@@H]([C@H]1C(=O)N[C@H](C#N)C[C@@H]1CCNC1=O)C2(C)C [Compound 46] | > 30000 nM | – | IC50 (COVID-19 WT Mpro): 7500 nM
CC(C)(C)[C@H](NC(=O)c1cc2ccccn2n1)C(=O)N1C[C@H]2[C@@H]([C@H]1C(=O)N[C@H](C#N)C[C@@H]1CCNC1=O)C2(C)C [Compound 51] | 9540 nM | – | IC50 (COVID-19 WT Mpro): 9400 nM
CC(C)(C)[C@H](NC(=O)N1CCOCC1)C(=O)N1C[C@H]2[C@@H]([C@H]1C(=O)N[C@H](C#N)C[C@@H]1CCNC1=O)C2(C)C [Compound 48] | 22000 nM | – | IC50 (COVID-19 WT Mpro): 224 nM
CC(C)(C)[C@H](NC(=S)NC1CCCCC1)C(=O)N1C[C@H]2[C@@H]([C@H]1C(=O)N[C@H](C#N)C[C@@H]1CCNC1=O)C2(C)C [Compound 43] | 3210 nM | – | IC50 (COVID-19 WT Mpro): 1230 nM
CC1(C)[C@@H]2[C@@H](C(=O)N[C@@H](C[C@@H]3CCNC3=O)C(=O)c3nc4ccccc4s3)N(C(=O)[C@@H]3CCCN3C(=O)C(F)(F)F)C[C@@H]21 [Compound 10] | 22700 nM | – | IC50 (COVID-19 WT Mpro): > 30000 nM
CC(C)(C)[C@H](NC(=O)[C@H](NC(=O)c1cnccn1)C1CCCCC1)C(=O)N1C[C@H]2[C@@H]([C@H]1C(=O)N[C@H](C#N)C[C@@H]1CCNC1=O)C2(C)C [Compound 14] | > 30000 nM | – | IC50 (COVID-19 WT Mpro): > 30000 nM
COC(=O)N(C(=O)C(F)(F)F)[C@H](C(=O)N1C[C@H]2[C@@H]([C@H]1C(=O)N[C@H](C#N)C[C@@H]1CCNC1=O)C2(C)C)C(C)(C)C [Compound 8] | 3110 nM | – | IC50 (COVID-19 WT Mpro): > 30000 nM
CC(C)(C)[C@H](NC(=O)C(F)(F)F)C(=O)N1C[C@H]2[C@@H]([C@H]1C(=O)N[C@H](C#N)Cc1cncnc1)C2(C)C [Compound 15] | > 30000 nM | – | IC50 (COVID-19 WT Mpro): > 30000 nM
CC(C)(C)[C@H](NC(=O)c1ccc2cc[nH]c2c1)C(=O)N1C[C@H]2[C@@H]([C@H]1C(=O)N[C@H](C#N)C[C@@H]1CCNC1=O)C2(C)C [Compound 42] | 2480 nM | – | IC50 (COVID-19 WT Mpro): 121 nM
CC(C)(C)[C@H](NC(=O)[C@H]1CCO1)C(=O)N1C[C@H]2[C@@H]([C@H]1C(=O)N[C@H](C#N)C[C@@H]1CCNC1=O)C2(C)C [Compound 22] | 3000 nM | 19300 nM | –
COc1cc(/C=C/C(=O)N[C@H](C(=O)N2C[C@H]3[C@@H]([C@H]2C(=O)N[C@H](C#N)C[C@@H]2CCNC2=O)C3(C)C)C(C)(C)C)cc(OC)c1 [Compound 157] | 320 nM | 6940 nM | –
CC(C)(C)[C@H](NC(=O)C(F)(Cl)C(F)(F)F)C(=O)N1C[C@H]2[C@@H]([C@H]1C(=O)N[C@H](C#N)C[C@@H]1CCNC1=O)C2(C)C (stereo partly shown) [Compound 75] | 6.9 nM | 92 nM | EC50 [1, 4]: 118 nM; EC50 (SARS-CoV-2 replicon; read-out: Replicon EC50): 13 nM
Cc1cc(S(=O)(=O)N[C@H](C(=O)N2C[C@H]3[C@@H]([C@H]2C(=O)N[C@H](C#N)C[C@@H]2CCNC2=O)C3(C)C)C(C)(C)C)sc1Cl [Compound 168] | 41 nM | 116 nM | –
CC(C)(C)[C@H](NC(=O)C(F)(F)F)C(=O)N1C[C@H]2[C@@H]([C@H]1C(=O)N[C@H](/C=C/C#N)C[C@@H]1CCNC1=O)C2(C)C [Compound 103] | 650 nM | 16900 nM | –
CC(C)NC(=S)N[C@H](C(=O)N1C[C@H]2[C@@H]([C@H]1C(=O)N[C@H](C#N)C[C@@H]1CCNC1=O)C2(C)C)C(C)(C)C [Compound 73] | 140 nM | 1320 nM | –
CC(C)(C)OC(=O)N1CCCC1(C)C(=O)N[C@H](C(=O)N1C[C@H]2[C@@H]([C@H]1C(=O)N[C@H](C#N)C[C@@H]1CCNC1=O)C2(C)C)C(C)(C)C (stereo partly shown) [Compound 57] | 400 nM | – | IC50 (COVID-19 WT Mpro): 57 nM
COC(=O)NS(=O)(=O)N[C@H](C(=O)N1C[C@H]2[C@@H]([C@H]1C(=O)N[C@H](C#N)C[C@@H]1CCNC1=O)C2(C)C)C(C)(C)C [Compound 97] | > 10000 nM | > 30000 nM | –
CC(C)(C)[C@H](NC(=S)NC1CC(F)(F)C1)C(=O)N1C[C@H]2[C@@H]([C@H]1C(=O)N[C@H](C#N)C[C@@H]1CCNC1=O)C2(C)C [Compound 123] | 790 nM | 700 nM | –

Compound | EC50 (SARS-CoV-2 replicon; [2]) | EC50 [1, 3] | also measured
CC(C)(C)[C@H](NC(=O)c1cccc2ccccc12)C(=O)N1C[C@H]2[C@@H]([C@H]1C(=O)N[C@H](C#N)C[C@@H]1CCNC1=O)C2(C)C [Compound 119] | 340 nM | 546 nM | –
CC(C)(C)[C@H](NS(=O)(=O)C[C@]12CC[C@H](CC1=O)C2(C)C)C(=O)N1C[C@H]2[C@@H]([C@H]1C(=O)N[C@H](C#N)C[C@@H]1CCNC1=O)C2(C)C [Compound 98] | 3650 nM | 3310 nM | –
CC(C)(C)[C@H](NC(=O)C#Cc1ccc(C(F)(F)F)cc1)C(=O)N1C[C@H]2[C@@H]([C@H]1C(=O)N[C@H](C#N)C[C@@H]1CCNC1=O)C2(C)C [Compound 154] | 180 nM | 511 nM | –
CC(C)(C)[C@H](NC(=O)C(c1ccccc1)c1ccccc1)C(=O)N1C[C@H]2[C@@H]([C@H]1C(=O)N[C@H](C#N)C[C@@H]1CCNC1=O)C2(C)C [Compound 18, (1R,2S,5S)—N—((S)-1-cyano-2-((S)-2-oxopyrrolidin-3-yl)ethyl)-3-((S)-2-(2,2-diphenylacetamido)-3,3-dimethylbutanoyl)-6,6-dimethyl-3-azabicyclo[3.1.0]hexane-2-carboxamide] | 1260 nM | 850 nM | EC50 (SARS-CoV-2 replicon; read-out: Replicon EC50): 1410 nM
C/C(=C\C(=O)N[C@H](C(=O)N1C[C@H]2[C@@H]([C@H]1C(=O)N[C@H](C#N)C[C@@H]1CCNC1=O)C2(C)C)C(C)(C)C)C(F)(F)F [Compound 140] | 350 nM | 619 nM | EC50 (SARS-CoV-2 replicon; read-out: Replicon EC50): 410 nM
CC(C)(C)OC(=O)N[C@H](C(=O)N1C[C@H]2[C@@H]([C@H]1C(=O)N[C@H](C#N)C[C@@H]1CCNC1=O)C2(C)C)C(C)(C)C [Compound 12] | – | – | EC50 ([1]; unidentified human coronavirus, 72 h, read-out: 229E CPE EC50, MRCS cells, HCoV 229E, 3 days, CellTiter Glo): 849 nM; EC50 (SARS-CoV-2 replicon; Severe acute respiratory syndrome coronavirus 2, Huh-7, 24 h, read-out: Replicon EC50): 106 nM; EC50 (SARS-CoV-2 replicon; read-out: Replicon EC50): 119 nM
CC(C)=C(Cl)C(=O)N[C@H](C(=O)N1C[C@H]2[C@@H]([C@H]1C(=O)N[C@H](C#N)C[C@@H]1CCNC1=O)C2(C)C)C(C)(C)C [Compound 160] | 160 nM | 193 nM | –
CC(C)(C)[C@H](NC(=O)C12CC(F)(C1)C2)C(=O)N1C[C@H]2[C@@H]([C@H]1C(=O)N[C@H](C#N)C[C@@H]1CCNC1=O)C2(C)C [Compound 34] | 270 nM | 534 nM | EC50 (SARS-CoV-2 replicon; read-out: Replicon EC50): 300 nM and 420 nM
C=C(C(=O)N[C@H](C(=O)N1C[C@H]2[C@@H]([C@H]1C(=O)N[C@H](C#N)C[C@@H]1CCNC1=O)C2(C)C)C(C)(C)C)C(F)(F)F [Compound 92] | 1760 nM | 17100 nM | –
CC(C)(C)[C@H](NC(=O)c1ccc2c(c1)CCC2)C(=O)N1C[C@H]2[C@@H]([C@H]1C(=O)N[C@H](C#N)C[C@@H]1CCNC1=O)C2(C)C [Compound 120] | 2240 nM | 4720 nM | –
CC(C)(C)[C@H](NC(=O)C1(CS(=O)(=O)C(C)(C)C)CCCCC1)C(=O)N1C[C@H]2[C@@H]([C@H]1C(=O)N[C@H](C#N)C[C@@H]1CCNC1=O)C2(C)C [Compound 115] | 3000 nM | > 30000 nM | –
CC(C)(C)[C@H](NC(=S)NC1CCC1)C(=O)N1C[C@H]2[C@@H]([C@H]1C(=O)N[C@H](C#N)C[C@@H]1CCNC1=O)C2(C)C [Compound 124] | 500 nM | 801 nM | –
CN(C)C(C)(C)C(=O)N[C@H](C(=O)N1C[C@H]2[C@@H]([C@H]1C(=O)N[C@H](C#N)C[C@@H]1CCNC1=O)C2(C)C)C(C)(C)C [Compound 104] | > 10000 nM | 12700 nM | –
CC(C)(C)[C@H](NS(=O)(=O)C[C@@]12CC[C@@H](CC1=O)C2(C)C)C(=O)N1C[C@H]2[C@@H]([C@H]1C(=O)N[C@H](C#N)C[C@@H]1CCNC1=O)C2(C)C [Compound 86] | 4020 nM | 9630 nM | –
CC(C)[C@H]1CC[C@H](C)C[C@@H]1OCC(=O)N[C@H](C(=O)N1C[C@H]2[C@@H]([C@H]1C(=O)N[C@H](C#N)C[C@@H]1CCNC1=O)C2(C)C)C(C)(C)C [Compound 110] | 1360 nM | 23500 nM | –
CC(C)(C)[C@H](NS(=O)(=O)c1ccc(F)cc1)C(=O)N1C[C@H]2[C@@H]([C@H]1C(=O)N[C@H](C#N)C[C@@H]1CCNC1=O)C2(C)C [Compound 53, (1R,2S,5S)—N—((S)-1-cyano-2-((S)-2-oxopyrrolidin-3-yl)ethyl)-3-((S)-2-((4-fluorophenyl)sulfonamido)-3,3-dimethylbutanoyl)-6,6-dimethyl-3-azabicyclo[3.1.0]hexane-2-carboxamide] | 51 nM | 265 nM | EC50 [1, 4]: 364 nM; EC50 (SARS-CoV-2 replicon; read-out: Replicon EC50): 100 nM
CC(C)(C)[C@H](NS(=O)(=O)c1ccccc1)C(=O)N1C[C@H]2[C@@H]([C@H]1C(=O)N[C@H](C#N)C[C@@H]1CCNC1=O)C2(C)C [Compound 95] | 37 nM | 358 nM | EC50 [1, 4]: 521 nM; EC50 (SARS-CoV-2 replicon; read-out: Replicon EC50): 68 nM
CC(C)(C)[C@H](NC(=O)C=C(C(F)(F)F)C(F)(F)F)C(=O)N1C[C@H]2[C@@H]([C@H]1C(=O)N[C@H](C#N)C[C@@H]1CCNC1=O)C2(C)C [Compound 158] | > 10000 nM | > 30000 nM | –
